Tests used:
CT-26 WT cells = test: CT-26 WT subcutaneous tumor model, CHK inhibitors at lower dose with anti-m-PD-1 antibody (Example 2); assay type: in vivo, BALB/c female mice; conditions: for Average tumor size: compounds 15 mg/kg tail vein once per day, anti-m-PD-1 10 mg/kg IP once every five days; for Tumor weight based TGI: compounds 15 mg/kg, anti-m-PD-1 10 mg/kg; for Tumor weight, Average: group average of 8 mice; for Tumor weight, Mouse no. 1 / Tumor weight, Mouse no. 2 / Tumor weight, Mouse no. 3 / Tumor weight, Mouse no. 4 / Tumor weight, Mouse no. 5 / Tumor weight, Mouse no. 6 / Tumor weight, Mouse no. 7 / Tumor weight, Mouse no. 8: individual mouse
Method: The anti-tumor effect of Compound 6 at a lower dose in combination with an anti-PD-1 antibody was studied in this Example. Further, three compounds obtained by structurally modifying Compound 6, i.e., Compound 6-1, Compound 6-2 and Compound 6-3, were tested alone or in combination with an anti-PD-1 antibody for their anti-tumor effects.
At Day 0, 105 BALB/c female mice, 4-5 weeks old, were subcutaneously injected with about 200.0 μL of the CT-26 WT cell medium containing about 5×10^5 cells, respectively.
At Day 5, 80 tumor-bearing mice were randomly assigned to ten groups according to their body weights, 8 mice per group. The remaining mice were subject to euthanasia.
The ten groups of animals were administered with an anti-m-PD-1 antibody (BE0146, BioXcell) in PBS (21-040-CVR, BioXcell) at 1.0 mg/mL, Compound 6 in saline at 1.5 mg/mL, Compound 6-1 in saline at 1.5 mg/mL, Compound 6-2 in saline at 1.5 mg/mL, Compound 6-3 in saline at 1.5 mg/mL, the anti-m-PD-1 antibody+Compound 6, the anti-m-PD-1 antibody+Compound 6-1, the anti-m-PD-1 antibody+Compound 6-2, the anti-m-PD-1 antibody+Compound 6-3, and the control vehicle (saline), respectively, at doses shown in Table 3 below.
(§1) Mice were observed every day for their physical conditions and activities, and mice body weight and tumor volume were measured every Tuesday, Thursday and Sunday. The tumor volume (V) was calculated as (length×width^2)/2.
(§2) At Day 23, mice were subject to euthanasia, from which tumors were collected, weighed and photographed. Mice body weights, tumor sizes and tumor weights were analyzed using the t-test in SPSS, and group differences were deemed statistically significant when the p-value was 0.05 or less. Tumor weight based tumor growth inhibition (TGI) and Zheng-Jun Jin's Q value were calculated.

[1] = Mice body weight in CT-26 WT tumor model (Example 2); assay type: in vivo, BALB/c female mice; conditions: for Average body weight: compounds 15 mg/kg tail vein once per day, anti-m-PD-1 10 mg/kg IP once every five days; for average mice weight, tumor weight deducted: compounds 15 mg/kg, anti-m-PD-1 10 mg/kg
Method: as §1, §2

NC(=O)c1nnc(OC2CCCNC2)c2cc(-c3cccc(F)c3)sc12 (stereo not drawn) [Compound 6-1, 2-(3-fluorophenyl)-4-(3-piperidinyloxy)-thieno[2,3-d]pyridazine-7-carboxylic acid amide]
Average tumor size (CT-26 WT cells; Day 9): 171.59 mm^3 | Average tumor size (CT-26 WT cells; Day 10): 257.64 mm^3 | Average tumor size (CT-26 WT cells; Day 12): 367.95 mm^3 | Average tumor size (CT-26 WT cells; Day 14): 550.08 mm^3 | Average tumor size (CT-26 WT cells; Day 16): 677.06 mm^3 | Average tumor size (CT-26 WT cells; Day 18): 780.61 mm^3 | Average tumor size (CT-26 WT cells; Day 20): 972.02 mm^3 | Average tumor size (CT-26 WT cells; Day 22): 1062.24 mm^3 | Average tumor size (CT-26 WT cells; Day 23): 1179.61 mm^3 | Tumor weight based TGI (CT-26 WT cells; Day 23): 45.63% | Tumor weight, Average (CT-26 WT cells; Day 23): 1.54 g | Tumor weight, Mouse no. 1 (CT-26 WT cells; Day 23): 0.87 g | Tumor weight, Mouse no. 2 (CT-26 WT cells; Day 23): 1.19 g | Tumor weight, Mouse no. 3 (CT-26 WT cells; Day 23): 2.32 g | Tumor weight, Mouse no. 4 (CT-26 WT cells; Day 23): 2.87 g | Tumor weight, Mouse no. 5 (CT-26 WT cells; Day 23): 1.58 g | Tumor weight, Mouse no. 6 (CT-26 WT cells; Day 23): 1.68 g | Tumor weight, Mouse no. 7 (CT-26 WT cells; Day 23): 1.31 g | Tumor weight, Mouse no. 8 (CT-26 WT cells; Day 23): 0.49 g | Average body weight ([1]; Day 9): 16.29 g | Average body weight ([1]; Day 10): 16.75 g | Average body weight ([1]; Day 12): 16.89 g | Average body weight ([1]; Day 14): 17.18 g | Average body weight ([1]; Day 16): 17.79 g | Average body weight ([1]; Day 18): 17.99 g | Average body weight ([1]; Day 20): 18.32 g | Average body weight ([1]; Day 22): 18.57 g | Average body weight ([1]; Day 23): 19.31 g | average mice weight, tumor weight deducted ([1]; Day 23): 17.77 g

NC(=O)c1nnc(SC2CCCNC2)c2cc(-c3cccc(F)c3)sc12 (stereo not drawn) [Compound 6-2, 2-(3-fluorophenyl)-4-(3-piperidinylthio)-thieno[2,3-d]pyridazine-7-carboxylic acid amide]
Average tumor size (CT-26 WT cells; Day 9): 196.37 mm^3 | Average tumor size (CT-26 WT cells; Day 10): 278.84 mm^3 | Average tumor size (CT-26 WT cells; Day 12): 391.83 mm^3 | Average tumor size (CT-26 WT cells; Day 14): 570.64 mm^3 | Average tumor size (CT-26 WT cells; Day 16): 698.18 mm^3 | Average tumor size (CT-26 WT cells; Day 18): 805.13 mm^3 | Average tumor size (CT-26 WT cells; Day 20): 974.34 mm^3 | Average tumor size (CT-26 WT cells; Day 22): 1196.22 mm^3 | Average tumor size (CT-26 WT cells; Day 23): 1334.63 mm^3 | Tumor weight based TGI (CT-26 WT cells; Day 23): 43.82% | Tumor weight, Average (CT-26 WT cells; Day 23): 1.59 g | Tumor weight, Mouse no. 1 (CT-26 WT cells; Day 23): 0.84 g | Tumor weight, Mouse no. 2 (CT-26 WT cells; Day 23): 1.58 g | Tumor weight, Mouse no. 3 (CT-26 WT cells; Day 23): 0.84 g | Tumor weight, Mouse no. 4 (CT-26 WT cells; Day 23): 2.56 g | Tumor weight, Mouse no. 5 (CT-26 WT cells; Day 23): 1.78 g | Tumor weight, Mouse no. 6 (CT-26 WT cells; Day 23): 2.12 g | Tumor weight, Mouse no. 7 (CT-26 WT cells; Day 23): 0.89 g | Tumor weight, Mouse no. 8 (CT-26 WT cells; Day 23): 2.11 g | Average body weight ([1]; Day 9): 16.45 g | Average body weight ([1]; Day 10): 16.69 g | Average body weight ([1]; Day 12): 16.78 g | Average body weight ([1]; Day 14): 17.22 g | Average body weight ([1]; Day 16): 17.62 g | Average body weight ([1]; Day 18): 18.05 g | Average body weight ([1]; Day 20): 18.67 g | Average body weight ([1]; Day 22): 19.14 g | Average body weight ([1]; Day 23): 19.63 g | average mice weight, tumor weight deducted ([1]; Day 23): 18.04 g

NC(=O)c1nnc(CC2CCCNC2)c2cc(-c3cc(Cl)cc(Cl)c3)sc12 (stereo not drawn) [Compound 6-3, 2-(3,5-dichlorophenyl)-4-(3-piperidinemethyl)-thieno[2,3-d]pyridazinyl-7-formamide]
Average tumor size (CT-26 WT cells; Day 9): 162.03 mm^3 | Average tumor size (CT-26 WT cells; Day 10): 282.00 mm^3 | Average tumor size (CT-26 WT cells; Day 12): 417.93 mm^3 | Average tumor size (CT-26 WT cells; Day 14): 527.17 mm^3 | Average tumor size (CT-26 WT cells; Day 16): 718.27 mm^3 | Average tumor size (CT-26 WT cells; Day 18): 828.07 mm^3 | Average tumor size (CT-26 WT cells; Day 20): 1072.57 mm^3 | Average tumor size (CT-26 WT cells; Day 22): 1334.48 mm^3 | Average tumor size (CT-26 WT cells; Day 23): 1558.87 mm^3 | Tumor weight based TGI (CT-26 WT cells; Day 23): 32.73% | Tumor weight, Average (CT-26 WT cells; Day 23): 1.90 g | Tumor weight, Mouse no. 1 (CT-26 WT cells; Day 23): 2.85 g | Tumor weight, Mouse no. 2 (CT-26 WT cells; Day 23): 1.24 g | Tumor weight, Mouse no. 3 (CT-26 WT cells; Day 23): 2.76 g | Tumor weight, Mouse no. 4 (CT-26 WT cells; Day 23): 1.31 g | Tumor weight, Mouse no. 5 (CT-26 WT cells; Day 23): 1.97 g | Tumor weight, Mouse no. 6 (CT-26 WT cells; Day 23): 1.03 g | Tumor weight, Mouse no. 7 (CT-26 WT cells; Day 23): 3.12 g | Tumor weight, Mouse no. 8 (CT-26 WT cells; Day 23): 0.95 g | Average body weight ([1]; Day 9): 15.99 g | Average body weight ([1]; Day 10): 16.25 g | Average body weight ([1]; Day 12): 16.51 g | Average body weight ([1]; Day 14): 17.26 g | Average body weight ([1]; Day 16): 17.91 g | Average body weight ([1]; Day 18): 18.13 g | Average body weight ([1]; Day 20): 18.75 g | Average body weight ([1]; Day 22): 19.38 g | Average body weight ([1]; Day 23): 20.06 g | average mice weight, tumor weight deducted ([1]; Day 23): 18.16 g
